Read-outs that look alike come from different tables or passages of the source.
Key:
Assay type in all cases: biochemical
CDK9/Cyclin T1 = target: T1, CDK9/Cyclin T1 (Homo sapiens, UniProt P50750); experiment: CDK9 Enzymatic Activity Assay (Lance Kinase Activity Assay, FRET); conditions: for CDK9: Selectivity of CDK7 inhibition over CDK9 inhibition [fold]: Table 5B, symbols per IC50 ranges of b615
T1 construct: purchased Invitrogen
Method: (§1) This protocol describes how the Lance Kinase Activity Assay was performed to determine IC50 values of compounds of general formula (I) against CDK/Cyclin complexes. The principle behind this enzymatic assay is based upon the phosphorylation of the Ulight-Peptide Substrat. It is detected by using a specific EU-labeled anti-phospho peptide antibody.
(§2) Binding of an inhibitor to the kinase prevents phosphorylation of the ULlight-MBP Substrat, resulting in a loss of FRET.
CDK9 Enzymatic Activity Assay
(§3) The compounds of general formula (I) exemplary summarized in Table 1 were diluted from a 10 mM DMSO stock solution 1:10 in a total volume of 15 μl DMSO. This compound predilution was then serial diluted 1:3 over 8 steps in DMSO and briefly spun down. Each compound solution was now diluted 1:20 in Enzymatic Buffer (HEPES: 50 mM, pH: 7.5; MgCl2: 10 mM; EGTA: 1 mM; DTT: 2 mM; Tween-20: 0.01%), mixed thoroughly and spun down.
(§4) For positive controls, 2 μl of DMSO working solution were mixed with 6 μl CDK9/cyclin T1/substrate working solution and 2 μl ATP working solution. Positive and negative controls were calculated from at least 8 different wells. The 384 well plates were mixed in a Teleshaker plate mixer (Beckman Coulter, Brea, Calif., USA) at 2000 rpm for 40 sec, and incubated for 1 h at room temperature before addition of 10 μl LANCE Detection Buffer (1×; EDTA: […]; Eu-Anti-P-MBP: 4 nM) per well. Plates were mixed in a Teleshaker plate mixer (Beckman Coulter, Brea, Calif., USA) at 2000 rpm for sec, followed by incubation with Detection Buffer for 1 h, and reading. […] IC50 values were determined from the sigmoidal dose response curves with the software Quattro Workflow (Quattro GmbH, Munich, Germany).

CDK2/CycA = target: T2, CDK2/CycA (Homo sapiens, UniProt P24941); experiment: CDK2 Enzymatic Activity Assay (Lance Kinase Activity Assay, FRET); conditions: for CDK2 IC50 range class: Table 5B, symbols per IC50 ranges of b615
T2 construct: purchased Proqinase
Method: as §1, §2
CDK2 Enzymatic Activity Assay
as §3
as §4, with “CDK2/CycA/substrate” for “CDK9/cyclin T1/substrate”, “(EDTA:” for “(1×; EDTA:”

CDK7/CycH/Mat1 = target: T3, CDK7/CycH/Mat1 (Homo sapiens, UniProt P50613); experiment: CDK7 Enzymatic Activity Assay (Lance Kinase Activity Assay, FRET)
T3 construct: purchased Carna
T3 sequence (P50613 whole entry): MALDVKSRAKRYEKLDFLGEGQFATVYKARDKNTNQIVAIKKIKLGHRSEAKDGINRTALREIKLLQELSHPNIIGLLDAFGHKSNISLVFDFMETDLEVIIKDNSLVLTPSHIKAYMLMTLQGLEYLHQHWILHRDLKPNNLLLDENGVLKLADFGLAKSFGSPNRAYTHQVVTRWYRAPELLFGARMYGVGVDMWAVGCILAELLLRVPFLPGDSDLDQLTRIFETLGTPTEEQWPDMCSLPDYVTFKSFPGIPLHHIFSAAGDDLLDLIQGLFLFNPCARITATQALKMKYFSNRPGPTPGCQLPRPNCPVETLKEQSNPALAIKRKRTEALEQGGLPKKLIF
T3 sequence (P51946 whole entry partner): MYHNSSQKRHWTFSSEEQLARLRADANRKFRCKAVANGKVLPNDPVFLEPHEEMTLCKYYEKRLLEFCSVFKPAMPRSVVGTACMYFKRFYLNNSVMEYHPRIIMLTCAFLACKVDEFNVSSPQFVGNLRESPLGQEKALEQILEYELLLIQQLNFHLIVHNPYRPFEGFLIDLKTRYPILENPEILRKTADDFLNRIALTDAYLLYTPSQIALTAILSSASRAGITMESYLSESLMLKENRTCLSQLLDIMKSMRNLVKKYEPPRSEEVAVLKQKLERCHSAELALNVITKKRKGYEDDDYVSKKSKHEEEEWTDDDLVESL
T3 sequence (P51948 whole entry partner): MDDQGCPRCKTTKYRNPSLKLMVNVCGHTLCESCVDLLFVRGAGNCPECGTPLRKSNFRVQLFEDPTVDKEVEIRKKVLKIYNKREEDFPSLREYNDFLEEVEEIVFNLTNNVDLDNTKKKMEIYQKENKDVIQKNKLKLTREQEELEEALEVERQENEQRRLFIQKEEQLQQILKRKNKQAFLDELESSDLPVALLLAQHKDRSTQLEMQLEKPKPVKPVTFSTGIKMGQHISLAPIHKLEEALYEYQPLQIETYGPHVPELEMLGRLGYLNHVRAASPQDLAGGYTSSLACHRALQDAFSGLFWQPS
Method: as §1, §2
CDK7 Enzymatic Activity Assay
as §3
as §4, with “6 μl CDK7/CycH/Mat1/substrate working solution” for “6 μl CDK9/cyclin T1/substrate working solution”, “rpm for 40 sec, followed” for “rpm for sec, followed”

[1] = Table 5A, 25 μM ATP final, read-out: CDK7: IC50 [mM] for CDK7 inhibition (the above defined ranges apply)

T1 sequence (P50750 whole entry): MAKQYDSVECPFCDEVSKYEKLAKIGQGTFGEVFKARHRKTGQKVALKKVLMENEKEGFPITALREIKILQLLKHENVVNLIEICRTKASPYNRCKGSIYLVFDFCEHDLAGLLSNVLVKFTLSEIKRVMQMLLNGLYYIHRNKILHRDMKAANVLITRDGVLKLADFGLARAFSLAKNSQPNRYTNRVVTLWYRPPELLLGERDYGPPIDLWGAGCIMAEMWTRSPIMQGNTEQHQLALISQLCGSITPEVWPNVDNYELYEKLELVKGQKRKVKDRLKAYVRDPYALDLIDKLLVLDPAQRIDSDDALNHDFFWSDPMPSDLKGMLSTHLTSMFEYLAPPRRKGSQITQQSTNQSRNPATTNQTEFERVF
T1 sequence (O60563 whole entry partner): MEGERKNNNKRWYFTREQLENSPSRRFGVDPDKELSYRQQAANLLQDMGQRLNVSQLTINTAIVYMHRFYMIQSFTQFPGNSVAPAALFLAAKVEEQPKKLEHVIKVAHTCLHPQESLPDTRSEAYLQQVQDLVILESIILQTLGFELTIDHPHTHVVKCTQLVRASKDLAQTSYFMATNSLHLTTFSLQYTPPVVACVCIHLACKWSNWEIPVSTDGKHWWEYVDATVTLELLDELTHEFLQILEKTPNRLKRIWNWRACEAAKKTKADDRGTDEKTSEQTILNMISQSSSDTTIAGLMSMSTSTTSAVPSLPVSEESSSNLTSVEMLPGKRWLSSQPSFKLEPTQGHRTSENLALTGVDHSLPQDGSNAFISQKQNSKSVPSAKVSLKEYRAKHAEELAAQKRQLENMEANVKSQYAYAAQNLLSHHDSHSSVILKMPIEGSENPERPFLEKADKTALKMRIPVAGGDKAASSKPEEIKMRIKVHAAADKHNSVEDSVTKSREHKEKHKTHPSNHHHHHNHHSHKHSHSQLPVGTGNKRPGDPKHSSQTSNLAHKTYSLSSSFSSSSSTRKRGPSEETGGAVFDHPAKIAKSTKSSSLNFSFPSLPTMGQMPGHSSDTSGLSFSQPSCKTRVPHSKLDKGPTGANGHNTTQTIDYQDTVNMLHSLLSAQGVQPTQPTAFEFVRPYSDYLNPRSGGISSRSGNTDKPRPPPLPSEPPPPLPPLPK

CDK9: Selectivity of CDK7 inhibition over CDK9 inhibition [fold] (CDK9/Cyclin T1) | CDK2 IC50 range class (CDK2/CycA) | IC50 (CDK7/CycH/Mat1; [1]) [nM] | Selectivity CDK7 over CDK9 [fold] (CDK9/Cyclin T1; Table 7, lower part) | IC50 (CDK9/Cyclin T1; Table 7, upper part) [nM] | Selectivity CDK7 over CDK2 [fold] (CDK2/CycA; Table 7, lower part) | IC50 (CDK2/CycA; Table 7, upper part) [nM] | IC50 (CDK7/CycH/Mat1; Table 7, lower part, read-out: IC50 [nM] CDK7) [nM] | IC50 (CDK7/CycH/Mat1; Table 7, upper part, read-out: IC50 [nM] CDK7) [nM] | SMILES
+++ (IC50>2500 nM) | +++ (IC50>2500 nM) | > 100 | – | – | – | – | – | – | COc1cccc([C@H](C)Nc2nc(N3CCCC(N)C3)nc3c(C(C)C)cnn23)c1 (stereo partly drawn) [(VIII-p), 2-(3-aminopiperidin-1-yl)-8-isopropyl-N-((S)-1-(3-methoxyphenyl)ethyl)pyrazolo[1,5-a][1,3,5]triazin-4-amine]
+++ (IC50>2500 nM) | +++ (IC50>2500 nM) | > 100 | – | – | – | – | – | – | COc1cccc([C@H](C)Nc2nc(N3CC4CCNC4C3)nc3c(C(C)C)cnn23)c1 (stereo partly drawn) [(VIII-r), 2-(hexahydropyrrolo[3,4-b]pyrrol-5(1H)-yl)-8-isopropyl-N-((S)-1-(3-methoxyphenyl)ethyl)pyrazolo[1,5-a][1,3,5]triazin-4-amine]
+++ (IC50>2500 nM) | +++ (IC50>2500 nM) | 10 to 30 | – | – | – | – | – | – | COc1cccc([C@H](C)Nc2nc(N3CCC34CCCNC4)nc3c(C(C)C)cnn23)c1 (stereo partly drawn) [(VIII-ag), 8-isopropyl-N-((S)-1-(3-methoxyphenyl)ethyl)-2-(1,6-diazaspiro[3.5]nonan-1-yl)pyrazolo[1,5-a][1,3,5]triazin-4-amine]
+++ (IC50>2500 nM) | +++ (IC50>2500 nM) | < 10 | 1475 | > 2500 | 1612 | > 2500 | < 10 | < 10 | COc1ccccc1[C@H](C)Nc1nc([S+]([O-])C2CCNCC2)nc2c(C(C)C)cnn12 (stereo partly drawn) [(X-c), 8-isopropyl-N-((S)-1-(2-methoxyphenyl)ethyl)-2-(piperidin-4-ylsulfinyl)pyrazolo[1,5-a][1,3,5]triazin-4-amine]
+++ (IC50>2500 nM) | +++ (IC50>2500 nM) | < 10 | – | – | – | – | – | – | COc1cccc([C@H](C)Nc2nc(OCCN(C)S(=O)(=O)C3CCNCC3)nc3c(C(C)C)cnn23)c1 [(VII-bw), (S)-N-(2-((8-isopropyl-4-((1-(3-methoxyphenyl)ethyl)amino)pyrazolo[1,5-a][1,3,5]triazin-2-yl)oxy)ethyl)-N-methylpiperidine-4-sulfonamide]
+++ (IC50>2500 nM) | +++ (IC50>2500 nM) | < 10 | – | – | – | – | – | – | CC(C)c1cnn2c(N[C@@H](C)c3ccccc3Br)nc(O[C@@H]3CCCNC3)nc12 [(VII-be), N-((S)-1-(2-bromophenyl)ethyl)-8-isopropyl-2-((R)-piperidin-3-yloxy)pyrazolo[1,5-a][1,3,5]triazin-4-amine]
+++ (IC50>2500 nM) | +++ (IC50>2500 nM) | 10 to 30 | – | – | – | – | – | – | CC(C)c1cnn2c(NC(C)c3cccc4ncccc34)nc(OC3CC4(CC(N)C4)C3)nc12 (stereo not drawn) [(VII-cc), 2-((6-aminospiro[3.3]heptan-2-yl)oxy)-8-isopropyl-N-(1-(quinolin-5-yl)ethyl)pyrazolo[1,5-a][1,3,5]triazin-4-amine]
+++ (IC50>2500 nM) | +++ (IC50>2500 nM) | < 10 | – | – | – | – | – | – | CC(C)c1cnn2c(NC(C)c3ccccc3N3CCC3)nc(O[C@@H]3CCCNC3)nc12 (stereo partly drawn) [(VII-by), N-(1-(2-(azetidin-1-yl)phenyl)ethyl)-8-isopropyl-2-((R)-piperidin-3-yloxy)pyrazolo[1,5-a][1,3,5]triazin-4-amine]
+++ (IC50>2500 nM) | +++ (IC50>2500 nM) | 30 to 100 | – | – | – | – | – | – | CC(C)c1cnn2c(N[C@@H](C)c3cccc(Cl)c3)nc(O[C@@H]3CCCNC3)nc12 [(VII-aj), N-((S)-1-(3-chlorophenyl)ethyl)-8-isopropyl-2-((R)-piperidin-3-yloxy)pyrazolo[1,5-a][1,3,5]triazin-4-amine]
+++ (IC50>2500 nM) | +++ (IC50>2500 nM) | > 100 | – | – | – | – | – | – | COc1cccc([C@H](C)Nc2nc(N3CC(N4CCC(F)(F)C4)C3)nc3c(C(C)C)cnn23)c1 [(VIII-o), (S)-2-(3-(3,3-difluoropyrrolidin-1-yl)azetidin-1-yl)-8-isopropyl-N-(1-(3-methoxyphenyl)ethyl)pyrazolo[1,5-a][1,3,5]triazin-4-amine]
+++ (IC50>2500 nM) | +++ (IC50>2500 nM) | > 100 | – | – | – | – | – | – | COc1cccc([C@H](C)Nc2nc(N(C)CCCN3CCCCC3)nc3c(C(C)C)cnn23)c1 [(VIII-X), (S)-8-isopropyl-N4-(1-(3-methoxyphenyl)ethyl)-N2-methyl-N2-(3-(piperidin-1-yl)propyl)pyrazolo(1,5-a][1,3,5]triazine-2,4-diamine]
+++ (IC50>2500 nM) | +++ (IC50>2500 nM) | 10 to 30 | – | – | – | – | – | – | COc1cccc([C@H](C)Nc2nc(N3CCC4(CCNC4)C3)nc3c(C(C)C)cnn23)c1 (stereo partly drawn) [(VIII-af), 8-isopropyl-N-((S)-1-(3-methoxyphenyl)ethyl)-2-(2,7-diazaspiro[4.4]nonan-2-yl)pyrazolo[1,5-a][1,3,5]triazin-4-amine]
+++ (IC50>2500 nM) | +++ (IC50>2500 nM) | < 10 | – | – | – | – | – | – | COc1cccc([C@H](C)Nc2nc(N3CCC34CCNCC4)nc3c(C(C)C)cnn23)c1 [(VIII-al), (S)-8-isopropyl-N-(1-(3-methoxyphenyl)ethyl)-2-(1,7-diazaspiro[3.5]nonan-1-yl)pyrazolo[1,5-a][1,3,5]triazin-4-amine]
+++ (IC50>2500 nM) | +++ (IC50>2500 nM) | 10 to 30 | – | – | – | – | – | – | COc1cccc([C@H](C)Nc2nc(N[C@@H]3CCCNC3)nc3c(C(C)C)cnn23)c1 [(VIII-h), 8-isopropyl-N4-((S)-1-(3-methoxyphenyl)ethyl)-N2-((R)-piperidin-3-yl)pyrazolo[1,5-a][1,3,5]triazine-2,4-diamine]
+++ (IC50>2500 nM) | +++ (IC50>2500 nM) | < 10 | – | – | – | – | – | – | CC(C)c1cnn2c(N[C@@H](C)c3ccccc3O)nc(O[C@@H]3CCCNC3)nc12 [(VII-ba), 2-((S)-1-((8-isopropyl-2-((R)-piperidin-3-yloxy)pyrazolo[1,5-a][1,3,5]triazin-4-yl)amino)ethyl)phenol]
+++ (IC50>2500 nM) | +++ (IC50>2500 nM) | > 100 | – | – | – | – | – | – | CC(C)c1cnn2c(NC(C)c3ccccc3C3CC3)nc(O[C@@H]3CCCNC3)nc12 (stereo partly drawn) [(VII-ao), N-(1-(2-cyclopropyl-phenyl)ethyl)-8-isopropyl-2-((R)-piperidin-3-yloxy)pyrazolo[1,5-a][1,3,5]triazin-4-amine]
+++ (IC50>2500 nM) | +++ (IC50>2500 nM) | < 10 | – | – | – | – | – | – | CC(C)c1cnn2c(NC(C)c3ccc4[nH]ncc4c3)nc(O[C@@H]3CCCNC3)nc12 (stereo partly drawn) [(VII-ca), N-(1-(1H-indazol-5-yl)ethyl)-8-isopropyl-2-((R)-piperidin-3-yloxy)pyrazolo[1,5-a][1,3,5]triazin-4-amine]
